87 molecules from a melting point compilation (Tetko et al.; mined from patent text by program, amines drawn as free bases though some values may be those of a salt) can be followed below.

In turn, `CN(C)C(=O)CCCOC(=O)C(OCc1ccc(-c2ccc(Cl)cc2)cc1)(C(F)(F)F)C(F)(F)F` gave a melting point of 54 to 55 °C.

In turn, `O=S(=O)(c1ccc(C(F)(F)F)cc1)N1CCCC1c1ccc(F)cc1` (racemic) yielded a melting point of 85 °C.

On to `O=c1oc(-c2cccc(C(F)(F)F)c2)nc2cccc(F)c12`, for which the melting point was 115 to 121 °C.

`CSc1nn2c(N)cc(C)nc2c1S(=O)(=O)c1ccc(F)cc1` registered a melting point of over 230 °C.

The molecule `CCOCc1nc2c(N)nc3ccccc3c2n1CC1(OCCS(C)(=O)=O)CCNCC1` returned a melting point of 212 to 214 °C.

`CCn1cc(C(=O)NO)c(=O)c2ccc(-c3ccncc3)cc21` had a melting point of 245 °C.

Molecule `Cc1c(C)c2c(c(C)c1N)C(=O)C(C)(C)O2` returned a melting point of 92 to 93 °C.

Molecule `COc1ccc(-c2[nH]ccc2S(=O)(=O)C(F)(F)F)cc1` yielded a melting point of 138 to 140 °C.

`Cn1c(=O)c(C#N)c(N2CCN(C(=O)c3cccs3)CC2)c2ccccc21` returned a melting point of 247 °C.

`Cc1cc(C)c2c(c1)Cc1ccccc1S2(=O)=O` registered a melting point of 103 to 105 °C.

`CCOCCc1c(-c2ccc(Cl)cc2)nc(N)n2ncnc12` returned a melting point of 183 to 185 °C.

The molecule `CCOC(=O)c1cn(Cc2ccccc2OC)c2sc(-c3ccc(N)cc3)c(CN(C)Cc3ccccc3)c2c1=O` returned a melting point of 120 to 122 °C.

In turn, `CC(C)CCNC(=O)c1ccccc1-c1ccccc1CNC(=O)Nc1ccccc1` displayed a melting point of 194 °C.

For the molecule `COC(=O)N1CCC(C(C#N)(c2ccccc2)c2ccccc2)C1` (configuration not stated), the melting point was in the range of 133 to 135 °C.

Turning to `CCCCCCC(C)(C)c1cc(OCc2ccccc2)c(C2=C(CC(=O)O)CCC(C)C2)c(OCc2ccccc2)c1` (configuration not stated), the melting point is 69 to 70 °C.

In turn, `CC(C)N(C(=O)COc1ccc(-c2ccc(C(=O)O)cc2C(F)(F)F)cc1)C(C)C` returned a melting point of 132 to 134 °C.

`CCCCCS(=O)(=O)NC(=O)/C=C/c1ccc(OCC(C)=O)cc1Oc1ncc(C(F)(F)F)cc1Cl` showed a melting point of 187 to 188 °C.

`COc1ccc(CCNCC(O)COc2ccc(-c3nc(-c4cccs4)c[nH]3)cc2)cc1OC` (configuration not stated): the melting point lay in the range of 127 to 129 °C.

The molecule `COc1ccc(Oc2cccc3ncnc(NC(C)=O)c23)cc1` gave a melting point of 174 to 175 °C.

The molecule `CCCc1nn(-c2ccc(C(F)(F)F)cc2)cc1CCCOc1c(CC(=O)O)cccc1OC` registered a melting point of 95 to 96 °C.

On to `CCN(CC)CCCNC(=O)Cn1ncc(-c2ccc(Cl)cc2)c1-c1ccccc1`, for which the melting point fell in the range of 104 to 105 °C.

Molecule `CCOc1nc2c(c3ccccc13)c1cc(Cl)ccc1n2C` came in with a melting point of 161 to 163 °C.

With `O=S1N=C(NCCCN(Cc2ccccc2)c2ccccn2)C(NCc2cccnc2)=N1` (configuration not stated), the melting point fell in the range of 114 to 116 °C.

Consider `COC(=O)c1cccc(NC(=O)NCC(=O)O)c1`, for which the melting point was found to be 215 °C.

As for `CC1(C)C=C(c2cccnc2)c2cc(C#N)ccc2O1`, the melting point was in the range of 98 to 99 °C.

The molecule `O=C(O)c1cc(Cl)c(OCc2ccccc2)c(Cl)c1` returned a melting point of 211 to 213 °C.

`O=C(Nc1ccc2nc(CN3CCN=C3Cc3ccccc3)ccc2c1)c1ccc(-c2ccc(F)cc2)cc1` registered a melting point of 200 to 202 °C.

The molecule `N#Cc1c(-c2cccc(CN)c2)cc(-c2ccccc2O)nc1NC(=O)c1cccs1` came in with a melting point of 203 to 205 °C.

Molecule `O=C(O)CCC=C(Cl)Cl` showed a melting point of 117 to 118 °C.

The molecule `CC(=O)Nc1nc2c(Oc3cc(-c4ccc(C(F)(F)F)cc4)ncn3)cccc2o1` yielded a melting point of 205 °C.

`CC(=O)CC(C)(C)Cn1cnc2c(N)nc3ccccc3c21` displayed a melting point of 214 to 216 °C.

Molecule `O=[N+]([O-])c1ccc(C(c2cccs2)C(Cc2cccs2)N2CCC(Cc3ccccc3)CC2)cc1` (configuration not stated) registered a melting point of 124 to 126 °C.

In the case of `CCCCCCCCCCNC(=O)C=Cc1cccc(NC(=O)/C=C\C(=O)O)c1`, the melting point lay within 187 to 188 °C.

As for `CCC1C(=O)N2C(C(=O)OCc3ccc([N+](=O)[O-])cc3)=C(CCNC(C)=O)CC12` (configuration not stated), the melting point was 174 to 176 °C.

With `NC(=O)Cc1ccc2c(c1)C(=O)Cc1ccccc1O2`, the melting point is 152 to 154 °C.

On to `CN1Cc2cc(F)ccc2-n2c(c(C#CC(C)(O)C3CC3)[nH]c2=O)C1` (configuration not stated), for which the melting point is 191 to 192 °C.

On to `CCCCCCC(=N)NC(=O)Nc1ccc(Cl)cc1`, for which the melting point is 168 to 169 °C.

With `N#Cc1ccc(-c2ccc(OS(N)(=O)=O)cc2)cc1Cn1cncn1`, the melting point was 179 to 180 °C.

For `COc1cc(C(=O)N2CCC(CCN3CCC(Nc4nc5ccccc5n4Cc4ccccn4)CC3)(c3ccc(F)cc3)C2)cc(OC)c1OC` (configuration not stated), the melting point lay within 110 to 119 °C.

`O=C(COc1cc(-c2ccccn2)nc2ccccc12)N1CCOCC1` gave a melting point of 185 °C.

On to `COC(=O)c1cccc(-c2c(C)cc(OC3CCS(=O)(=O)CC3)cc2C)c1`, for which the melting point worked out at 180 °C.

`CN(CCOc1ccc(N)cc1)CCc1ccc(N)cc1` came in with a melting point of 73 to 74 °C.

The molecule `CCCCC(=N)NC(=O)Nc1cccc(C(F)(F)F)c1` showed a melting point of 167 to 169 °C.

On to `CC(C)c1cccc(C(C)C)c1NC(=O)C1c2ccccc2COc2ccc(CO)cc21` (configuration not stated), for which the melting point is 157 to 158 °C.

`CCCCc1oc2ccccc2c1C(=O)O` returned a melting point of 106 to 110 °C.

In turn, `CC(C)n1nc(-c2sc(NC(=O)Oc3ccccc3)nc2-c2ccccc2)ccc1=O` displayed a melting point of 205 to 207 °C.

As to `CC1CC(=O)C=C(N)C1` (configuration not stated), the melting point was 165 to 169 °C.

`O=C(O)[C@@H]1CSCN1C(=O)CCc1ccccc1` showed a melting point of 93 to 95 °C.

For the molecule `COc1ccc(Cl)cc1-c1c(N)c(=O)[nH]c2cc(C(F)(F)F)cc(C(F)(F)F)c12`, the melting point was 265 to 267 °C.

Consider `CC(C)(C)OC(=O)C(C#N)=C(NCCCN1CCCCCC1=O)Nc1cc(C(F)(F)F)cc(C(F)(F)F)c1`, for which the melting point fell in the range of 167 to 168 °C.

`COC(=O)C1Cc2c([nH]c3ccccc23)C(c2ccc(OC)c(O)c2)N1` (configuration not stated): the melting point lay within 140 to 148 °C.

In turn, `Cc1cn2c(=O)c3c(F)cccc3nc2s1` came in with a melting point of 245 to 246 °C.

In turn, `Nc1ncc(Cc2csc3ccccc23)c(N)n1` had a melting point of 220 to 222 °C.

`O=c1nc(-c2ccsc2)c2c(=O)nc(-c3ccsc3)c1=2` gave a melting point of over 400 °C.

In turn, `CC(C)(C)OC(=O)N(Cc1ccc(C2CCCCC2)cc1)c1nc(N2CCOCC2)c2ncn(CC(=O)O)c2n1` returned a melting point of 166 to 167 °C.

`COc1ccc(Cc2c(F)cccc2F)c(N(CC(N)=O)S(=O)(=O)c2ccc(OC)c(OC)c2)c1` had a melting point of 188 °C.

Regarding `CN1CCN(c2cc(Cl)nc(-c3ccccc3)n2)CC1`, the melting point is 91 to 92.5 °C.

Regarding `COC1C(NC(=O)C(F)(F)F)CC(OC2CC(O)(CO)Cc3c(O)c4c(c(O)c32)C(=O)c2ccccc2C4=O)OC1C` (configuration not stated), the melting point fell in the range of 262 to 263 °C.

In the case of `COc1ccc(Oc2cc3ccc(Cl)cc3cn2)cc1`, the melting point worked out at 77 °C.

In turn, `N#CCc1ccc(-c2nc3ccccc3o2)cc1Br` returned a melting point of 190 to 191 °C.

Consider `CC(C)(C(=O)C(Oc1ccc(Cl)cc1Cl)n1ccnc1)C(Cl)Cl` (configuration not stated), for which the melting point was in the range of 125 to 126 °C.

Turning to `CS(=O)(=O)c1ccc(-c2cnn(-c3cccs3)c(=O)c2-c2ccc(F)cc2)cc1`, the melting point was in the range of 215 to 217 °C.

`O=C(N[C@H](Cc1cccc(C(F)(F)F)c1)[C@@H](O)c1ccc(F)cc1)C1CCCCC1` (racemic) had a melting point of 190 to 191 °C.

For the molecule `CCOC(=O)CC(=O)Nc1c(C(=O)OC)cccc1C(F)(F)F`, the melting point was 87 °C.

The molecule `CCCCCCCCCCCCCCOc1ccc(C(=O)Nc2ccc(CO)cc2)cc1` gave a melting point of 140 to 145 °C.

`Cc1nc2c(cc1CO)CCCC2=Cc1ccccc1`: the melting point fell in the range of 102 to 103 °C.

The molecule `Fc1cccc(COc2ccc(Nc3ncnc4sc(C#Cc5ccccn5)cc34)cc2Cl)c1` came in with a melting point of 180 °C.

`COc1cc2c(cc1OC)CC(N(C)CCCN1CCc3cc(OC)c(OC)cc3C(O)C1=O)CC2` (configuration not stated): the melting point fell in the range of 141 to 143 °C.

`Cc1ccc(OCn2c(-c3nonc3NCCC#N)nc3ccccc32)cc1C` showed a melting point of 132 to 135 °C.

In turn, `COc1ccc2c(c1)C(=O)N(c1ccc(C(C)CO)cc1)C2` (configuration not stated) yielded a melting point of 135 to 138 °C.

Molecule `CC(C)(C)OC(=O)N1C(=O)[C@H](O)[C@@H]1C=Cc1ccccc1` yielded a melting point of 132 to 133 °C.

For `C#CCn1cnc2c(N)nc3ccccc3c21`, the melting point was 220 to 222 °C.

Take `Nc1sc2c(c1C(=O)c1ccc3ccccc3c1)CCCC2`: the melting point lay in the range of 95 to 97 °C.

Molecule `CN(CCCN1CCC(=C2c3ccccc3C=Cc3ccccc32)CC1)c1ncccn1` showed a melting point of 129 °C.

The molecule `O=S(=O)(O)c1ccc2nc(NC3=NCCN3)[nH]c2c1` yielded a melting point of over 360 °C.

For the molecule `CCN(CC)CCOc1ccc(-c2sc3ccccc3c2C(=O)c2cc(C)cc(C)c2)cc1`, the melting point was 138 to 142 °C.

`COc1ccc2c(c1)OC(C)(C)CC2=O` returned a melting point of 77 to 78 °C.

Molecule `CCOC(=O)C(=O)Nc1ccc2ccccc2c1` came in with a melting point of 118 to 120 °C.

`Cc1cc(C2CCC2)n2nc(S(=O)(=O)Nc3c(Cl)cccc3Cl)nc2n1` came in with a melting point of 260 °C.

With `NCC1Cc2cc(Cl)cc(-c3ccoc3)c2O1` (configuration not stated), the melting point is over 250 °C.

Turning to `Clc1ccc(-c2cnc3cc4cn[nH]c4cc3n2)s1`, the melting point was over 300 °C.

Turning to `CC(=O)N(C)c1ccc(-c2cc3ccc(Br)cn3c2)cc1C`, the melting point is 197 to 198 °C.

`CCCn1c(=O)n2c(-c3ccc(C(=O)O)cc3)nnc2c2c1ncn2C`: the melting point is over 315 °C.

As to `CC(C)(C)OC(=O)COc1ccc(C=O)cc1`, the melting point lay within 56 to 57 °C.

For the molecule `FC(F)(F)c1cc(Cl)c(-n2cc(I)c(-c3ccccc3)n2)c(Cl)c1`, the melting point lay in the range of 88 to 89 °C.

In the case of `CCN(CC)c1nc2cc(C)nn2c2c1cnc1c2cnn1CC`, the melting point lay within 106 to 108 °C.

As to `CC1Nc2cc(-c3ccc(Cl)cc3)ccc2NC1=O` (configuration not stated), the melting point fell in the range of 228 to 230 °C.

By melting point is commonly meant the temperature, or range, at which the solid turns liquid.
